Results as given in patent publication US4562202A, “N-Acyl hexahydroindole-2-carboxylic acids and anti-hypertensive use thereof” (Hoechst Aktiengesellschaft, priority 1982, dated 1985).

What follows are compounds tested on pressor reaction induced by angiotensin I (assay: Inhibition of the pressor reaction induced by 310 ng of angiotensin I, intraduodenal administration to the anaesthetized rat). Details: 0.5 h, 310 ng angiotensin I, 30 min. after administration, read-out: ED50 (50% inhibition of the pressor reaction induced by 310 ng of angiotensin I 30 min. after administration).
Assay type: in vivo
Procedure: intraduodenal administration to the anaesthetized rat, 50% inhibition of the pressor reaction induced by 310 ng of angiotensin I 30 min. after administration in the dose . . . =ED50 : […]

SMILES	ED50
CCOC(=O)[C@H](CC(=O)c1ccccc1)N[C@@H](C)C(=O)N1[C@H](C(=O)O)C[C@@H]2CCC=C[C@@H]21 [N-(1S-carboethoxy-3-oxo-3-phenylpropyl)-S-alanyl-cis-2,3,3a,4,5,7a-hexahydro[1H]indole-2S-endocarboxylic acid]	0.39 mg/kg
CCOC(=O)[C@H](CC(=O)c1ccccc1)N[C@@H](C)C(=O)N1[C@@H]2C=CCC[C@@H]2C[C@H]1C(=O)O [N-(1S-carboethoxy-3-oxophenylpropyl)-S-alanyl-cis-2,3,3a,4,5,7a-hexahydro[1H]indole-2S-exocarboxylic acid]	0.5 mg/kg
CCOC(=O)[C@H](CCc1ccccc1)N[C@@H](C)C(=O)N1[C@H](C(=O)O)C[C@@H]2CCC=C[C@@H]21 [N-(1S-carboethoxy-3-phenylpropyl)-S-alanyl-cis-2,3,3a,4,5,7a-hexahydro [1H]indole-2S-endo-carboxylic acid]	0.04 mg/kg
CCOC(=O)[C@H](CCc1ccccc1)N[C@@H](C)C(=O)N1C(C(=O)O)CC2CCC=CC21 (stereo partly drawn) [N-(1S-carboethoxy-3-phenylpropyl)-S-alanyl-cis-2,3,3a,4,5,7a-hexahydro[1H]indole-2R,S-endo-carboxylic acid]	0.08 mg/kg
CCOC(=O)[C@H](CCc1ccccc1)N[C@@H](C)C(=O)N1[C@@H]2C=CCC[C@@H]2C[C@H]1C(=O)O [N-(1S-carboethoxy-3-phenylpropyl)-S-alanyl-cis-2,3,3a,4,5,7a-hexahydro[1H]indole-2S-exo-carboxylic acid]	0.07 mg/kg
C[C@H](N[C@@H](CCc1ccccc1)C(=O)O)C(=O)N1[C@H](C(=O)O)C[C@@H]2CCC=C[C@@H]21 [N-(1S-carboxy-3-phenylpropyl)-S-alanyl-cis-2,3,3a,4,5,7a-hexahydro[1H]indole-2S-endo-carboxylic acid]	0.6 mg/kg
C[C@H](N[C@@H](CCc1ccccc1)C(=O)O)C(=O)N1[C@@H]2C=CCC[C@@H]2C[C@H]1C(=O)O [N-(1S-carboxy-3-phenylpropyl)-S-alanyl-cis-2,3,3a,4,5,7a-hexahydro[1H]indole-2S-exo-carboxylic acid]	0.7 mg/kg
